# Read-outs that look alike come from different tables or passages of the source.
# Key:
# Type in all cases: cell-based
# [1] = test system: Candida albicans ATCC 90029; test: Antifungal susceptibility testing, NCCLS M27-A2 broth microdilution (yeasts); details: for inhibition at 0.09 µg/mL: ATCC90029, 0.09 µg/mL; for inhibition at 0.09 µg/mL / inhibition at 0.19 µg/mL / inhibition at 0.39 µg/mL / inhibition at 0.78 µg/mL / inhibition at 1.56 µg/mL / inhibition at 3.12 µg/mL / inhibition at 6.25 µg/mL / inhibition at 12.5 µg/mL / inhibition at 25 µg/mL / inhibition at 50 µg/mL: read-out: % of growth inhibition; for inhibition at 0.19 µg/mL: ATCC90029, 0.19 µg/mL; for inhibition at 0.39 µg/mL: ATCC90029, 0.39 µg/mL; for inhibition at 0.78 µg/mL: ATCC90029, 0.78 µg/mL; for inhibition at 1.56 µg/mL: ATCC90029, 1.56 µg/mL; for inhibition at 3.12 µg/mL: ATCC90029, 3.12 µg/mL; for inhibition at 6.25 µg/mL: ATCC90029, 6.25 µg/mL; for inhibition at 12.5 µg/mL: ATCC90029, 12.5 µg/mL; for inhibition at 25 µg/mL: ATCC90029, 25 µg/mL; for inhibition at 50 µg/mL: ATCC90029, 50 µg/mL
# Description: (§1) Cabanillasin activity was tested against different fungal human pathogens: ascomycetes yeasts (Candida albicans ATCC 90029, Candida Glabrata ATCC 90030, Candida krusei ATCC 6258 and Candida lusitaniae CBS 6936), basidiomycetes yeasts (Cryptococcus neoformans clinical strain), ascomycetes filamentous fungi (Aspergilus fumigatus clinical strain, Fusarium oxysporum clinical strain) and zygomycetes filamentous fungi (Rhizopus oryzae environemental strain) by the M38-A microdilution method with RPMI 1640 medium (RPMI 1640, MOPS 160 mM, glucose 18 g/L, pH 7) as recommended in the […]. The NCCLS M27-A2 broth microdilution method (NCCLS) was used when yeasts were tested.
# (§2) Yeasts and filamentous inoculi were prepared on YPD medium (yeast extract 10 g/L, peptone 10 g/L and glucose 20 g/L) and Malt medium (malt extract 20 g/L) respectively. The densities of inoculi were adjusted by dilution in RPMI 1640 broth to a value ranged from 5.10^2 to 5.10^3 CFU/mL for yeasts isolates and 5.10^3 to 5.10^4 CFU/mL for filamentous fungi. Microdilution trays (96 U-bottom shaped) containing 190 µL fungal inoculum were added with 10 µL Cabanillasin solution (final concentration ranging from 50 to 0.098 mg/L for all fungi). After inoculation of the trays, all microdilution trays were incubated at 35°C in ambient air. The culture absorbance was measured at 600 nm, 24 h and 48 h after the beginning of the experiments for the yeasts and 48 h and 72 h after the beginning of the experiments for filamentous fungi and Cryptococcus neoformans. The activity results correspond to a percentage of growth inhibition ((1-Abs600 nm culture with Cabanillasin)/ Abs600 nm culture without Cabanillasin) x 100.
# (§3) The IC50 value is the concentration at which inhibition of growth is equal to 50%. MICs for Candida species were determined at 24 h and 48 h and corresponded to 100% of growth inhibition. Amphotericin B was provided as standard (final concentration ranging from 16 to 0.03 mg/L for all fungi). Experiments were done in duplicate.
# Candida krusei ATCC 6258 = test: as above; details: Pichia kudriavzevii, ATCC6258; for inhibition at 0.09 µg/mL / inhibition at 0.19 µg/mL / inhibition at 0.39 µg/mL / inhibition at 0.78 µg/mL / inhibition at 1.56 µg/mL / inhibition at 3.12 µg/mL / inhibition at 6.25 µg/mL / inhibition at 12.5 µg/mL / inhibition at 25 µg/mL / inhibition at 50 µg/mL: read-out: % of growth inhibition
# Description: as §1, §2, §3
# [2] = test system: Cryptococcus neoformans clinical strain; test: as above; details: for inhibition at 0.09 µg/mL / inhibition at 0.19 µg/mL / inhibition at 0.39 µg/mL / inhibition at 0.78 µg/mL / inhibition at 1.56 µg/mL / inhibition at 3.12 µg/mL / inhibition at 6.25 µg/mL / inhibition at 12.5 µg/mL / inhibition at 25 µg/mL / inhibition at 50 µg/mL: read-out: % of growth inhibition
# Description: as §1, §2, §3
# [3] = test system: Fusarium oxysporum clinical strain; test: Antifungal susceptibility testing, M38-A microdilution method (filamentous fungi); details: for inhibition at 0.09 µg/mL / inhibition at 0.19 µg/mL / inhibition at 0.39 µg/mL / inhibition at 0.78 µg/mL / inhibition at 1.56 µg/mL / inhibition at 3.12 µg/mL / inhibition at 6.25 µg/mL / inhibition at 12.5 µg/mL / inhibition at 25 µg/mL / inhibition at 50 µg/mL: read-out: % of growth inhibition
# Description: as §1, §2, §3
# [4] = test system: Rhizopus oryzae environemental strain; test: as above; details: for inhibition at 0.09 µg/mL / inhibition at 0.19 µg/mL / inhibition at 0.39 µg/mL / inhibition at 0.78 µg/mL / inhibition at 1.56 µg/mL / inhibition at 3.12 µg/mL / inhibition at 6.25 µg/mL / inhibition at 12.5 µg/mL / inhibition at 25 µg/mL / inhibition at 50 µg/mL: Rhizopus arrhizus, read-out: % of growth inhibition
# Description: as §1, §2, §3
structure (smiles),measurement,setting,value
CC(=O)NC(=N)NCCCCNC(=N)NCCCCNC(=N)NCCCCNC(=N)NCCCCN [Cabanillasin],inhibition at 0.09 µg/mL,[1]; 24 h incubation,34%
same,inhibition at 0.09 µg/mL,[1]; 48 h incubation,0%
same,inhibition at 0.19 µg/mL,[1]; 24 h incubation,37%
same,inhibition at 0.19 µg/mL,[1]; 48 h incubation,0%
same,inhibition at 0.39 µg/mL,[1]; 24 h incubation,34%
same,inhibition at 0.39 µg/mL,[1]; 48 h incubation,0%
same,inhibition at 0.78 µg/mL,[1]; 24 h incubation,50.5%
same,inhibition at 0.78 µg/mL,[1]; 48 h incubation,0%
same,inhibition at 1.56 µg/mL,[1]; 24 h incubation,46.3%
same,inhibition at 1.56 µg/mL,[1]; 48 h incubation,0%
same,inhibition at 3.12 µg/mL,[1]; 24 h incubation,45.4%
same,inhibition at 3.12 µg/mL,[1]; 48 h incubation,0%
same,inhibition at 6.25 µg/mL,[1]; 24 h incubation,47.7%
same,inhibition at 6.25 µg/mL,[1]; 48 h incubation,0%
same,inhibition at 12.5 µg/mL,[1]; 24 h incubation,70.7%
same,inhibition at 12.5 µg/mL,[1]; 48 h incubation,0%
same,inhibition at 25 µg/mL,[1]; 24 h incubation,71%
same,inhibition at 25 µg/mL,[1]; 48 h incubation,0%
same,inhibition at 50 µg/mL,[1]; 24 h incubation,81%
same,inhibition at 50 µg/mL,[1]; 48 h incubation,18%
same,IC50,"[1]; ATCC90029, 24 h of incubation",0.78 µg/mL
same,inhibition at 0.09 µg/mL,Candida krusei ATCC 6258; 24 h incubation,0%
same,inhibition at 0.09 µg/mL,Candida krusei ATCC 6258; 48 h incubation,0%
same,inhibition at 0.19 µg/mL,Candida krusei ATCC 6258; 24 h incubation,0%
same,inhibition at 0.19 µg/mL,Candida krusei ATCC 6258; 48 h incubation,0%
same,inhibition at 0.39 µg/mL,Candida krusei ATCC 6258; 24 h incubation,0%
same,inhibition at 0.39 µg/mL,Candida krusei ATCC 6258; 48 h incubation,0%
same,inhibition at 0.78 µg/mL,Candida krusei ATCC 6258; 24 h incubation,0%
same,inhibition at 0.78 µg/mL,Candida krusei ATCC 6258; 48 h incubation,0%
same,inhibition at 1.56 µg/mL,Candida krusei ATCC 6258; 24 h incubation,0%
same,inhibition at 1.56 µg/mL,Candida krusei ATCC 6258; 48 h incubation,0%
same,inhibition at 3.12 µg/mL,Candida krusei ATCC 6258; 24 h incubation,9%
same,inhibition at 3.12 µg/mL,Candida krusei ATCC 6258; 48 h incubation,0%
same,inhibition at 6.25 µg/mL,Candida krusei ATCC 6258; 24 h incubation,79%
same,inhibition at 6.25 µg/mL,Candida krusei ATCC 6258; 48 h incubation,31.2%
same,inhibition at 12.5 µg/mL,Candida krusei ATCC 6258; 24 h incubation,91%
same,inhibition at 12.5 µg/mL,Candida krusei ATCC 6258; 48 h incubation,83%
same,inhibition at 25 µg/mL,Candida krusei ATCC 6258; 24 h incubation,100%
same,inhibition at 25 µg/mL,Candida krusei ATCC 6258; 48 h incubation,88.5%
same,inhibition at 50 µg/mL,Candida krusei ATCC 6258; 24 h incubation,100%
same,inhibition at 50 µg/mL,Candida krusei ATCC 6258; 48 h incubation,92.9%
same,IC50,Candida krusei ATCC 6258; 24 h of incubation,6.25 µg/mL
same,MIC,"Candida krusei ATCC 6258; 24 h of incubation, 100% of growth inhibition",25 µg/mL
same,inhibition at 0.09 µg/mL,[2]; 48 h incubation,0%
same,inhibition at 0.09 µg/mL,[2]; 72 h incubation,0%
same,inhibition at 0.19 µg/mL,[2]; 48 h incubation,0%
same,inhibition at 0.19 µg/mL,[2]; 72 h incubation,0%
same,inhibition at 0.39 µg/mL,[2]; 48 h incubation,0%
same,inhibition at 0.39 µg/mL,[2]; 72 h incubation,0%
same,inhibition at 0.78 µg/mL,[2]; 48 h incubation,0%
same,inhibition at 0.78 µg/mL,[2]; 72 h incubation,0%
same,inhibition at 1.56 µg/mL,[2]; 48 h incubation,0%
same,inhibition at 1.56 µg/mL,[2]; 72 h incubation,0%
same,inhibition at 3.12 µg/mL,[2]; 48 h incubation,23.8%
same,inhibition at 3.12 µg/mL,[2]; 72 h incubation,0%
same,inhibition at 6.25 µg/mL,[2]; 48 h incubation,32%
same,inhibition at 6.25 µg/mL,[2]; 72 h incubation,0%
same,inhibition at 12.5 µg/mL,[2]; 48 h incubation,47.3%
same,inhibition at 12.5 µg/mL,[2]; 72 h incubation,0%
same,inhibition at 25 µg/mL,[2]; 48 h incubation,65.3%
same,inhibition at 25 µg/mL,[2]; 72 h incubation,0%
same,inhibition at 50 µg/mL,[2]; 48 h incubation,63.8%
same,inhibition at 50 µg/mL,[2]; 72 h incubation,0%
same,IC50,[2]; after 48 h,25 µg/mL
same,IC50,[2]; after 72 h,> 50 µg/mL
same,inhibition at 0.09 µg/mL,[3]; 48 h incubation,0%
same,inhibition at 0.09 µg/mL,[3]; 72 h incubation,0%
same,inhibition at 0.19 µg/mL,[3]; 48 h incubation,0%
same,inhibition at 0.19 µg/mL,[3]; 72 h incubation,0%
same,inhibition at 0.39 µg/mL,[3]; 48 h incubation,0%
same,inhibition at 0.39 µg/mL,[3]; 72 h incubation,0%
same,inhibition at 0.78 µg/mL,[3]; 48 h incubation,0%
same,inhibition at 0.78 µg/mL,[3]; 72 h incubation,0%
same,inhibition at 1.56 µg/mL,[3]; 48 h incubation,0%
same,inhibition at 1.56 µg/mL,[3]; 72 h incubation,0%
same,inhibition at 3.12 µg/mL,[3]; 48 h incubation,32.1%
same,inhibition at 3.12 µg/mL,[3]; 72 h incubation,0%
same,inhibition at 6.25 µg/mL,[3]; 48 h incubation,68.6%
same,inhibition at 6.25 µg/mL,[3]; 72 h incubation,48.6%
same,inhibition at 12.5 µg/mL,[3]; 48 h incubation,71.6%
same,inhibition at 12.5 µg/mL,[3]; 72 h incubation,56.4%
same,inhibition at 25 µg/mL,[3]; 48 h incubation,66.6%
same,inhibition at 25 µg/mL,[3]; 72 h incubation,72.5%
same,inhibition at 50 µg/mL,[3]; 48 h incubation,80.2%
same,inhibition at 50 µg/mL,[3]; 72 h incubation,79.8%
same,IC50,[3]; incubation time not stated,6.25 µg/mL
same,inhibition at 0.09 µg/mL,[4]; 48 h incubation,0%
same,inhibition at 0.09 µg/mL,[4]; 72 h incubation,0%
same,inhibition at 0.19 µg/mL,[4]; 48 h incubation,0%
same,inhibition at 0.19 µg/mL,[4]; 72 h incubation,0%
same,inhibition at 0.39 µg/mL,[4]; 48 h incubation,0%
same,inhibition at 0.39 µg/mL,[4]; 72 h incubation,0%
same,inhibition at 0.78 µg/mL,[4]; 48 h incubation,0%
same,inhibition at 0.78 µg/mL,[4]; 72 h incubation,0%
same,inhibition at 1.56 µg/mL,[4]; 48 h incubation,0%
same,inhibition at 1.56 µg/mL,[4]; 72 h incubation,0%
same,inhibition at 3.12 µg/mL,[4]; 48 h incubation,0%
same,inhibition at 3.12 µg/mL,[4]; 72 h incubation,0%
same,inhibition at 6.25 µg/mL,[4]; 48 h incubation,0%
same,inhibition at 6.25 µg/mL,[4]; 72 h incubation,0%
same,inhibition at 12.5 µg/mL,[4]; 48 h incubation,0%
same,inhibition at 12.5 µg/mL,[4]; 72 h incubation,0%
same,inhibition at 25 µg/mL,[4]; 48 h incubation,0%
same,inhibition at 25 µg/mL,[4]; 72 h incubation,0%
same,inhibition at 50 µg/mL,[4]; 48 h incubation,40.7%
same,inhibition at 50 µg/mL,[4]; 72 h incubation,0%
same,activity,[4]; at 48h,weak activity
same,activity,[4]; at 72 h,no activity
